Publication PMC5866590 (Proceedings of the National Academy of Sciences of the …, 2018)
Where two headings read alike, the source gives them in different places.

Target: T1, FmlHLD (Escherichia coli, UniProt Q1RBS0)
T1 sequence (Q1RBS0 25-184): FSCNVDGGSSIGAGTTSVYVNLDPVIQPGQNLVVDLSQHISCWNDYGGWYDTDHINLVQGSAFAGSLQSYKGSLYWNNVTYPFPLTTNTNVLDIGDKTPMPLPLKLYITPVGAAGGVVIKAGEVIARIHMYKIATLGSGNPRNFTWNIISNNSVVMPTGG
Assay type: binding, Escherichia coli (UPEC strain UTI89)
Conditions: for Percent inhibition (PI100) of FmlHLD binding to ds-BSM: mean with SEM in Table S2

[1] = Fig. 1B: 1 mM or 0.1 mM compounds

OC[C@H]1OC(O)[C@@H](O)[C@@H](O)[C@@H]1O (stereo partly drawn) [Man, mannose, reference compound]
Inhibition of FmlHLD binding to ds-BSM (in words) [1]: neither Man nor glucose (Glc) had any detectable effect

CC(=O)N[C@H]1C(O)O[C@H](CO)[C@H](O)[C@@H]1O (mixture of isomers) [GalNAc, N-acetylgalactosamine, reference compound]
Inhibition of FmlHLD binding to ds-BSM (in words) (compound at 1 mM): capable of inhibiting FmlHLD

OC[C@H]1O[C@@H](O[C@H]2[C@H](O)[C@@H](O)C(O)O[C@@H]2CO)[C@H](O)[C@@H](O)[C@H]1O (stereo partly drawn) [Lac, Gal(β1-4)Glc, reference compound]
Inhibition of FmlHLD binding to ds-BSM (in words) [1]: incapable of inhibiting FmlHLD

O=c1ccc2nc3ccc(O[C@@H]4O[C@H](CO)[C@H](O)[C@H](O)[C@H]4O)cc3oc-2c1 [15β]
Percent inhibition (PI100) of FmlHLD binding to ds-BSM (compound at 100 μM, 100 µM): 80%

OC[C@H]1O[C@@H](Oc2ccccc2)[C@H](O)[C@@H](O)[C@H]1O [1β, phenyl β-galactoside]
Percent inhibition (PI100) of FmlHLD binding to ds-BSM (compound at 100 μM, 100 µM): 77%

OC[C@H]1O[C@@H](Oc2cc3c(O)cc(O)cc3[o+]c2-c2ccc(O)c(O)c2)[C@H](O)[C@@H](O)[C@H]1O [24β, cyanidin galactoside]
Percent inhibition (PI100) of FmlHLD binding to ds-BSM (compound at 100 μM, 100 µM): 29%

CC(=O)N[C@@H]1[C@@H](O[C@@H]2O[C@H](CO)[C@H](O)[C@H](O)[C@H]2O)[C@@H](O)[C@@H](CO)O[C@@H]1O [TF, Gal(β1-3)GalNAc(α), reference compound]
Inhibition of FmlHLD binding to ds-BSM (in words) (compound at 1 mM): capable of inhibiting FmlHLD

CC(C)S[C@@H]1O[C@H](CO)[C@H](O)[C@H](O)[C@H]1O [36β-thio, isopropyl β-thiogalactoside, reference compound]
Inhibition of FmlHLD binding to ds-BSM (in words) (compound at 100 μM): minor inhibitory activity

O=C[C@H](O)[C@@H](O)[C@@H](O)[C@H](O)CO [Gal, galactose, reference compound]
Inhibition of FmlHLD binding to ds-BSM (in words) (compound at 1 mM): capable of inhibiting FmlHLD

O=c1c(O[C@@H]2O[C@H](CO)[C@H](O)[C@H](O)[C@H]2O)c(-c2ccc(O)c(O)c2)oc2cc(O)cc(O)c12 [26β, quercetin galactoside]
Percent inhibition (PI100) of FmlHLD binding to ds-BSM (compound at 100 μM, 100 µM): 14%

OC[C@H]1OC(O)[C@H](O)[C@@H](O)[C@@H]1O (stereo partly drawn) [Glc, glucose, reference compound]
Inhibition of FmlHLD binding to ds-BSM (in words) [1]: neither Man nor glucose (Glc) had any detectable effect

COc1cc(-c2[o+]c3cc(O)cc(O)c3cc2O[C@@H]2O[C@H](CO)[C@H](O)[C@H](O)[C@H]2O)ccc1O [25β]
Percent inhibition (PI100) of FmlHLD binding to ds-BSM (compound at 100 μM): 3.6%
